Measured values reported in patent US11098061B2 (Celgene CAR LLC, priority 2013, dated 2021).

Experiments:
MK2 = MK2 (Homo sapiens (Human), UniProt P49137); assay: MK2 modification assessment by whole protein mass spectrometry; assay type: binding; conditions: intact MK2, 60 min, 10-fold excess of compound to protein
Description: Modification of MK2 is measured by whole protein MS analysis. […] 5 μL aliquots of the samples were diluted with 15 μL of 0.2% TFA prior to micro C4 ZipTipping directly onto the MALDI target using sinapinic acid as the desorption matrix (10 mg/ml in 0.1% TFA:Acetonitrile 50:50). Analysis was performed on a AB Sciex 4800 MALDI TOF/TOF retro fitted with an HM2 detector (CovalX). Percent modification of target MK2 (i.e., the percent of total MK2 modified by the test compound) for each compound was calculated by subtracting the centroid mass of the compound treated MK2 from the centroid mass of the control MK2 and dividing that value with the mass of the compound.

[1] = target: p38a activated, mitogen-activated protein kinase-activated protein kinase 2 (MAPKAP-K2 or MK-2) enzyme (Homo sapiens (Human), UniProt P49137); assay: MK2 Omnia continuous-read kinase assay for compound potency; assay type: biochemical; conditions: [MK-2]=0.4 nM, [ATP]=1.0 mM, [ST3-Sox]=10 μM
From the text: The protocol below describes a continuous-read kinase assay optimized to measure potency of compounds against p38a activated, mitogen-activated protein kinase-activated protein kinase 2 (MAPKAP-K2 or MK-2) enzyme. The mechanics of the assay platform are best described by the vendor (Invitrogen, Carlsbad, Calif.) on their website at the following URL: invitrogen.com/search/global/searchAction. action?resultPage=1 &resultsPerPage=15 &query=om nia&personaFilterTerm=Support+%26+Troubleshoot
Kinase reactions were started with the addition of 40 μL of MK-2 enzyme and monitored every 71 seconds for 30-240 minutes at λex360/λem485 in a Synergy^2, Synergy^4 or Synergy H^4 plate reader from BioTek (Winooski, Vt.). […] Initial velocity (0 minutes to +30 minutes) from each reaction was estimated from the slope of a plot of relative fluorescence units vs time (minutes) and normalized to the no enzyme and no inhibitor control groups for % Inhibition. The resulting % Inhibition values were then plotted against inhibitor concentration to estimate IC50 from log[Inhibitor] vs Response, Variable Slope model in GraphPad Prism from GraphPad Software (San Diego, Calif.).
[MK-2]=0.4 nM, [ATP]=1.0 mM and [ST3-Sox]=10 μM (ATP ^appKM=8-10 μM)

Chain of p38a activated, mitogen-activated protein kinase-activated protein kinase 2 (MAPKAP-K2 or MK-2) enzyme (P49137 whole entry): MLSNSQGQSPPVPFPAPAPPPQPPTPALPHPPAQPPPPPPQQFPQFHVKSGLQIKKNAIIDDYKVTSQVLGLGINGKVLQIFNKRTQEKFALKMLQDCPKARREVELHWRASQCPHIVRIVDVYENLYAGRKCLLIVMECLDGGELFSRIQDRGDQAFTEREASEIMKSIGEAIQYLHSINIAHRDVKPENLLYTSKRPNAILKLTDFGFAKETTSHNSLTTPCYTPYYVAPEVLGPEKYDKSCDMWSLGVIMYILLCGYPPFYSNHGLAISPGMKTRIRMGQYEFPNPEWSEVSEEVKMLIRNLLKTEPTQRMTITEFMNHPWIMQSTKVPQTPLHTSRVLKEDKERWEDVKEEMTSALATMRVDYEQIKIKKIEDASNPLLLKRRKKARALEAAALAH
Chain of MK2 (P49137 whole entry): as above

Row | SMILES | MK2 Mass Mod (MK2) | IC50 [1]
1 | C=CC(=O)Nc1ccccc1Nc1nccc(-c2cc3c([nH]2)C2(CCCNC2)CNC3=O)n1 (racemic) [Compound I-5, N-(2-((4-(4′-oxo-1′,4′,5′,6′-tetrahydrospiro[piperidine-3,7′-pyrrolo[3,2-c]pyridin]-2′-yl)pyrimidin-2-yl)amino)phenyl)acrylamide] | F (mass modification of 31-69%) | > 1 µM
2 | C=CC(=O)Nc1cc(-c2cc(-c3cc4c([nH]3)C3(CCCNC3)CNC4=O)ccn2)ccc1N1CCN(C)CC1 (racemic) [Compound I-10, N-(2-(4-methylpiperazin-1-yl)-5-(4-(4′-oxo-1′,4′,5′,6′-tetrahydrospiro[piperidine-3,7′-pyrrolo[3,2-c]pyridin]-2′-yl)pyridin-2-yl)phenyl)acrylamide] | E (mass modification of ≥70%) | < 0.1 µM
3 | C=CC(=O)Nc1cc(C(=O)Nc2cc(-c3cc4c([nH]3)C3(CCCNC3)CNC4=O)ccn2)ccc1F (racemic) [Compound I-24, 3-acrylamido-4-fluoro-N-(4-(4′-oxo-1′,4′,5′,6′-tetrahydrospiro[piperidine-3,7′-pyrrolo[3,2-c]pyridin]-2′-yl)pyridin-2-yl)benzamide] | F (mass modification of 31-69%) | 0.101 to 0.5 µM
4 | C=CC(=O)Nc1c(C)c(NC2CCCNC2)nc2ccnn12 (stereo not shown) [IV-b-1, N-(6-methyl-5-(piperidin-3-ylamino)pyrazolo [1,5-a]pyrimidin-7-yl)acrylamide] |  | 0.101 to 0.5 µM
5 | C=CC(=O)Nc1cc(-c2cc3c(cn2)CCc2c-3[nH]c3c2C(=O)NCC3)ccc1OCCCNC(=O)CCCC(=O)NCCCOCCOCCOCCCNC(=O)CCCC[C@H]1SC[C@H]2NC(=O)N[C@H]21 [Probe 1] |  | < 0.1 µM
6 | C=CC(=O)Nc1cc(-c2cc3c(cn2)CCc2c-3[nH]c3c2C(=O)NCC3)ccc1OCCCNC(=O)CCCC(=O)NCCCOCCOCCOCCCNC(=O)CCCC[C@H]1SC[C@H]2NC(=O)N[C@H]21 [Probe 2, N1-(3-(2-acrylamido-4-(7-oxo-6,7,8,9,10,11-hexahydro-5H-pyrido[3′,4′:4,5]pyrrolo[2,3-f]isoquinolin-2-yl)phenoxy)propyl)-N5-(15-oxo-19-((3aR,4R,6aS)-2-oxohexahydro-1H-thieno[3,4-d]imidazol-4-yl)-4,7,10-trioxa-14-azanonadecyl)glutaramide] |  | < 0.1 µM
7 | C=CC(=O)Nc1cc(-c2cc(-c3cc4n(c3)CCNC4=O)ccn2)ccc1OC [V-c-1, N-(2-methoxy-5-(4-(1-oxo-1,2,3,4-tetrahydropyrrolo[1,2-a]pyrazin-7-yl)pyridin-2-yl)phenyl)acrylamide] | F (mass modification of 31-69%) | 

Second part, the compound after the results:

Row | MK2 Mass Mod (MK2) | IC50 [1] | SMILES
8 | G (mass modification ≤30%) | > 1 µM | C=CC(=O)NC1CCCCC1NC(=O)c1ccc2cc3n(c2c1)CCNC3=O (racemic) [Compound V-10, Racemic N-((1S,2R)-2-acrylamidocyclohexyl)-1-oxo-1,2,3,4-tetrahydropyrazino[1,2-a]indole-7-carboxamide]
9 | G (mass modification ≤30%) | > 1 µM | C=CC(=O)N[C@H]1CCCC[C@H]1NC(=O)c1ccc2cc3n(c2c1)C1(CCC1)CNC3=O (racemic) [Compound V-46, Cis-N-(2-acrylamidocyclohexyl)-1′-oxo-2′,3′-dihydro-1′H-spiro[cyclobutane-1,4′-pyrazino[1,2-a]indole]-7′-carboxamide (racemic)]
10 | G (mass modification ≤30%) | > 1 µM | C=CC(=O)N[C@H]1COC[C@H]1NC(=O)c1ccc2cc3n(c2c1)C1(CCC1)CNC3=O (racemic) [Compound V-49, Cis-N-(4-acrylamidotetrahydrofuran-3-yl)-1′-oxo-2′,3′-dihydro-1′H-spiro[cyclobutane-1,4′-pyrazino[1,2-a]indole]-7′-carboxamide (racemic)]
11 | G (mass modification ≤30%) | > 1 µM | C=CC(=O)NC1CCCC1NC(=O)c1ccc2cc3n(c2c1)C1(CCC1)CNC3=O (racemic) [Compound V-55, N-cis-(2-acrylamidocyclopentyl)-1′-oxo-2′,3′-dihydro-1′H-spiro[cyclobutane-1,4′-pyrazino[1,2-a]indole]-7′-carboxamide (racemic)]
12 |  | > 1 µM | C=CC(=O)NC1CCCCC1NC(=O)c1ccc2cc3n(c2c1)C1(CCC1)CNC3=O (racemic) [Compound V-64, trans-(2-acrylamidocyclohexyl)-1′-oxo-2′,3′-dihydro-1′H-spiro[cyclobutane-1,4′-pyrazino[1,2-a]indole]-7′-carboxamide (racemic)]
13 | E (mass modification of ≥70%) | 0.501 to 0.999 µM | C=CC(=O)Nc1cc(NC(=O)c2ccc3cc4n(c3c2)CCNC4=O)ccc1N1CCN(CC)CC1 [Compound V-1, N-(3-acrylamido-4-(4-ethylpiperazin-1-yl)phenyl)-1-oxo-1,2,3,4-tetrahydropyrazino[1,2-a]indole-7-carboxamide]
14 | G (mass modification ≤30%) | > 1 µM | C=CC(=O)N[C@H]1CN(C(=O)c2ccc3cc4n(c3c2)CCNC4=O)CC[C@H]1C [Compound V-2, N-((3R,4R)-4-methyl-1-(1-oxo-1,2,3,4-tetrahydropyrazino[1,2-a]indole-7-carbonyl)piperidin-3-yl)acrylamide]
15 | G (mass modification ≤30%) | > 1 µM | C=CC(=O)N1CCC[C@@H](NC(=O)c2ccc3cc4n(c3c2)CCNC4=O)C1 [Compound V-3, (R)—N-(1-acryloylpiperidin-3-yl)-1-oxo-1,2,3,4-tetrahydropyrazino[1,2-a]indole-7-carboxamide]
16 | G (mass modification ≤30%) | > 1 µM | CN(C)C/C=C/C(=O)N1CCOc2ccc(NC(=O)c3ccc4cc5n(c4c3)CCNC5=O)cc21 [Compound V-4, (E)-N-(4-(4-(dimethylamino)but-2-enoyl)-3,4-dihydro-2H-benzo[b][1,4]oxazin-6-yl)-1-oxo-1,2,3,4-tetrahydropyrazino[1,2-a]indole-7-carboxamide]
17 | G (mass modification ≤30%) | > 1 µM | CN(C)C/C=C/C(=O)Nc1ccccc1NC(=O)c1ccc2cc3n(c2c1)CCNC3=O [Compound V-5, (E)-N-(2-(4-(dimethylamino)but-2-enamido)phenyl)-1-oxo-1,2,3,4-tetrahydropyrazino[1,2-a]indole-7-carboxamide]
18 | F (mass modification of 31-69%) | > 1 µM | C=CC(=O)Nc1cccc(NC(=O)c2ccc3cc4n(c3c2)CCNC4=O)c1 [Compound V-7, N-(3-acrylamidophenyl)-1-oxo-1,2,3,4-tetrahydropyrazino[1,2-a]indole-7-carboxamide]
19 | E (mass modification of ≥70%) | > 1 µM | C=CC(=O)Nc1ccccc1NC(=O)c1ccc2cc3n(c2c1)CCNC3=O [Compound V-8, N-(2-acrylamidophenyl)-1-oxo-1,2,3,4-tetrahydropyrazino[1,2-a]indole-7-carboxamide]
20 |  | > 1 µM | C=CC(=O)Nc1c(C)ccc2oc(-c3ccc4cc5n(c4c3)C3(CCC3)CNC5=O)nc12 [Compound V-12, N-(5-methyl-2-(1′-oxo-2′,3′-dihydro-1′H-spiro[cyclobutane-1,4′-pyrazino [1,2-a]indol]-7′-yl)benzo[d]oxazol-4-yl)acrylamide]
